Results as given in article PMC2063203, “The renal effects of the water-soluble, non-folylpolyglutamate synthetase-dependent thymidylate synthase inhibitor ZD9331 in mice” (British Journal of Cancer, 1998).
Several values for one entry are separate records, joined by “and”; a condition that tells them apart may be missing. Identical values can stand only once.

System: DBA-2 mice
Assay: Glomerular filtration rate (GFR) by [14C]inulin clearance after bolus drug
Format: in vivo
Description: British Journal of Cancer (1998) 78(11), 1457-1463 ? […] In contrast to Tomudex (ZD1694), ZD9331 may therefore be active against tumours with low FPGS activity. […] In view of the history of renal toxicity with some earlier TS inhibitors and the possible therapeutic use of bolus ZD9331, we have examined the effects of bolus ZD9331 dose and route of administration on plasma and kidney pharmacokinetics and renal function in mice. Renal function was assessed by measuring [14C]inulin clearance, and drug concentrations were assayed by reverse-phase high-performance liquid chromatography (HPLC). […] Kidney drug concentrations were slightly elevated in iv.- versus i.p.-treated animals at the low dose (50 mg kg-'), with a correspondingly larger area under the curve. However, at the highest dose (200 mg kg-'), peak kidney drug concentrations were 20-fold higher following i.v. administration than after i.p., with marked kidney retention, resulting in a 50-fold greater kidney drug exposure for the i.v. versus the i.p. route. […] These adverse effects can be readily overcome by i.p. administration, indicating the likely need for short infusions in clinical settings. […] Early studies established that nephrotoxicity may be a result of poor aqueous solubility of 2-amino compounds such as CB3717, and it was shown that 2-desamino CB3717 was more water soluble and less nephrotoxic (Jones et al, 1989; 1996). […] These polyglutamate forms also exibit intra- cellular retention, which may contribute to toxicity as well as anti- tumour activity. […] Such compounds might be expected to show activity in a different spectrum of tumours from ZD1694 and to have a more manageable toxicity profile because of the lack of retained cyto- toxic metabolites. […] MATERIALS AND METHODS Drug administration and animals The compound ZD933 1 (Figure 1) was provided as a white crystalline salt. ['4C]inulin was provided as a carboxylic acid (Amersham, UK, 250 µCi in 5 ml, specific activity 6.6 mCi mmol-') and diluted to an activity of 5 µCi ml-' in phosphate-buffered saline (PBS). ZD9331 was dissolved in 0.05 M sodium bicarbonate, 1457 1458 Ml Walton et al ~~ N Ny~~~14COOHH 0 H IN H N CH ~~~~H , 4 H3C N3 H Figure 1 The chemical structure of ZD9331 adjusted to pH 9.0 and administered either i.v. via the tail vein or i.p. at 0.01 ml g-' mouse body weight. [14C]inulin was administered at 0.05 gCi g-' (i.e. 0.01 ml g-') i.v. via the tail vein. Adult female DBA-2 mice were obtained from OLAC (Bicester, UK) and used at 8-12 weeks of age at a body weight of 15-25 g. Mice were housed in cages containing untreated sawdust and allowed access to food and water ad libitum. Sample preparation Plasma and tissue samples were prepared using standard tech- niques (Walton et al, 1996). Briefly, whole blood was obtained by cardiac puncture into heparinized syringes from halothane- anaesthetized mice. Plasma was prepared by centrifugation at 12 000 r.p.m. x 2 min in a bench-top microcentrifuge. Kidney and liver tissues were rapidly removed, washed and snap frozen on dry ice. Frozen plasma and tissues were stored at -20?C for up to 4 weeks prior to analysis. Individual samples were thawed on ice and handled rapidly. ZD9331 was extracted from whole plasma or tissue homogenates (33% w/v in 0.1 M Tris, pH 10.0) by the addition of an equal volume of acetonitrile, mixing and centrifugation and the super- natant removed for injection into the HPLC system. Samples were diluted with Tris buffer (0.1 M, pH 10.0) on to the linear part of the calibration curve prior to HPLC analysis. Extraction efficiencies were >95%. HPLC analysis Concentrations of ZD9331 were measured in biological samples using reversed phase HPLC on equipment supplied by Kontron (Watford, UK). Separations were carried out using stainless-steel columns heated at 45?C and packed with C18 Supelcosil ODS (10 cm x 4.6 mm, 5 µm bead size, Sigma, Dorset) and protected with NewGuard C18 columns (Anachem, Luton, UK). […]

Compound | plasma clearance of [14C]inulin (normal DBA-2 mice, i.v., two independent experiments) | effect on GFR (150 mg kg-1 i.p., 24 h after administration) | effect on GFR (150 mg kg-1 i.v., 4 h after administration) | effect on GFR (150 mg kg-1 i.v., 24 h after administration)
[14C]inulin [reference compound] | 1.17 L/h/kg and 1.28 L/h/kg | – | – | –
C#CCN(Cc1ccc2nc(N)[nH]c(=O)c2c1)c1ccc(C(=O)N[C@@H](CCC(=O)O)C(=O)O)cc1 [CB3717, N10-propargyl-5,8-dideazafolic acid, reference compound] | – | significant renal toxicity | significant renal toxicity | significant renal toxicity
